Experimental data taken from patent US6319929A, “Suksdorfin analogs, compositions thereof, and methods for making and using thereof” (priority 1998, dated 2001).
Several values for one entry are separate records, joined by “and”; a condition that tells them apart may be missing. Equal values may be shown once. Read-outs that look alike come from different tables or passages of the source.

Legend:
[1] = tested on: HIV-1 replication in H9 cells; assay: HIV-1 replication inhibition in acutely infected H9 lymphocytes (p24 antigen ELISA); assay type: cell-based, HIV-1 (IIIB strain)
Description: HIV inhibition assay. The HIV inhibition was measured as described herein. Briefly, H9 cells, a T cell line, (3.5×10^6 cells/ml) were incubated in the presence or absence of HIV-1 (IIIB strain, 0.01-0.1 TCID50 /cell) for 1 hour at 37° C. Cells were washed thoroughly and resuspended at a final concentration of 2×10^5 cells/ml in the presence or absence of compound. After incubation for 3-4 days at 37° C., the cell density of uninfected cultures was determined by cell count to assess toxicity of the drug. An aliquot of each cell-free supernatant was assayed by p24 antigen ELISA to quantitate the amount of HIV-1 present in the infected cultures. Test compounds were considered to be active at a particular concentration if p24 antigen levels were less than 70% of infected, untreated controls and were nontoxic to uninfected H9 cells.
HIV Growth Inhibition Assay: The T cell line, H9, and the promonocytic cell line, U937, were maintained separately in continuous culture with complete medium (RPMI 1640 and […] fetal calf serum (FCS) at 5% CO2 and 37° C. Cell lines were used in experiments only when in log phase of growth; whereas, uninfected peripheral blood mononuclear cells (PBMCs) were first stimulated with PHA (1 μg/ml) for 3 days. All cell targets were incubated with HIV-1 (IIIB isolate, TCID50 10 ^4 IU/mi, at a multiplicity of infection of 0.1-0.01 IU/cell) for 1 hour at 37° C. and 5% CO2. The cell lines and PBMCs were washed thoroughly to remove unabsorbed virions and resuspended at 4×10^5 cells/ml in complete medium or complete medium with 10% v/v interleukin […] IL-2, respectively. Aliquots ( ml) were placed in wells of 24-well culture plates containing an equal volume of test compound (diluted in the appropriate culture medium). After incubation for 4 days at 37° C., cell density of uninfected cultures was determined by counting cells in a Coulter counter to assess toxicity of the test compound. A p24 antigen ELISA assay was used to determine the level of virus released in the medium of the HIV-infected cultures. The p24 antigen assay uses a HIV-1 anti-p24 specific monoclonal antibody as the capture antibody coated-on 96-well plates. Following a sample incubation period, rabbit serum containing antibodies for HIV-1 p24 is used to tag any p24 "captured" onto the microtiter well surface. Peroxidase conjugated goat anti-rabbit serum is then used to tag HIV-1 p24 specific rabbit antibodies which have complexed with captured p24. […] The cut-off for the p24 ELISA assay is 12. pg/ml. P24 in the culture medium was quantitated against a standard curve containing known amounts of p24. The effective (EC50) and inhibitory (IC50) concentrations (for anti-HIV activity and cytotoxicity, respectively) were determined graphically. Both the EC50 and IC50 values were calculated by plotting drug concentration versus percent inhibition, and then identifying a 50% inhibition value from the graph.

[2] = tested on: chronically HIV-1 infected U1 cells; assay: Virus expression from chronically HIV-1 infected monocytic cell line U1 (p24 antigen ELISA); assay type: cell-based
Description: (§1) Effects of suksdorfin analogs on Chronically HIV-1 infected cells. The experimental design is as follows: The phorbol ester, PMA (10^-8 M) and various concentrations of suksdorfin were either added or not added to both the chronically HIV-1 infected T cell line (ACH-2) and to the chronically HIV-1 infected monocytic cell line (U1). Cell-free supernatant was collected 72 hours post culture for p24 antigen ELISA.
Compound 16 was also assayed on ACH-2 (chronically HIV-1 infected T cell line). U1 cells are also chronically HIV-1 infected cells but they are from the monocytic cell line, U937. The data presented in Table 8 indicates the following points:
(§2) Chronically HIV-1 infected cell lines. HIV-1 chronically infected T cell line, ACH-2^12, and HIV-1 chronically infected promonocytic cell line, U1 13, were continuously maintained in RPMI 1640 with 10% fetal calf serum (FCS). For experiments, the cell lines were only used in the […] of growth. Cells (0.5×10^6 cells/well) and either various concentrations of suksdorfin or medium alone were added to 24-well plates in the presence or absence of PMA (10^-8 M). After 72 hours at 37° C. and 5% CO2, an aliquot of the cell-free supernatants were collected and analyzed for p24 antigen by ELISA (see below for details of p24 antigen ELISA).

[3] = tested on: chronically HIV-1 infected ACH-2 cells; assay: Virus expression from chronically HIV-1 infected T cell line ACH-2 (p24 antigen ELISA); assay type: cell-based
Description: as §1
Results (Table 11) from adding compound 16 to the chronically HIV-infected T cell line, ACH-2, according to methods in above examples. ACH-2 are a chronically HIV-1 infected T cell line. It was derived from A3.01 cells which is a subclone of the CEM cell line. The data below indicates the following points:
as §2

Cc1cn([C@H]2C[C@H](N=[N+]=[N-])[C@@H](CO)O2)c(=O)[nH]c1=O [AZT, azidothymidine, reference compound]
EC50 ([1]; Human immunodeficiency virus 1, H9, Table 3, H9 lymphocytes): 40 nM | EC50 ([1]; Human immunodeficiency virus 1, H9, Table 17, acutely infected H9 lymphocytes): 150 nM | Therapeutic Index ([1]; Table 3, H9 lymphocytes): 50,000 | Therapeutic Index ([1]; Table 17, H9): 12,500 | P24 ([2]; U1, +PMA, 0.01 μg/ml): 9626 pg/mL | P24 ([2]; U1, +PMA, 0.1 μg/ml): 4363 pg/mL | P24 ([2]; U1, +PMA, 1 μg/ml): 7898 pg/mL | P24 ([2]; U1, +PMA, 10 μg/ml): 8653 pg/mL | P24 ([2]; U1, -PMA, 0.01 μg/ml): 50 pg/mL | P24 ([2]; U1, -PMA, 0.1 μg/ml): 53 pg/mL | P24 ([2]; U1, -PMA, 1 μg/ml): 72 pg/mL | P24 ([2]; U1, -PMA, 10 μg/ml): 97 pg/mL | P24 ([3]; Table 11 (ACH-2), +PMA, 0.01 μg/ml): 21,373 pg/ml | P24 ([3]; Table 11 (ACH-2), +PMA, 0.1 μg/ml): 10,621 pg/ml | P24 ([3]; Table 11 (ACH-2), +PMA, 1 μg/ml): 17,088 pg/ml | P24 ([3]; Table 11 (ACH-2), +PMA, 10 μg/ml): 16,584 pg/ml | P24 ([3]; Table 11 (ACH-2), -PMA, 0.01 μg/ml): 796 pg/mL | P24 ([3]; Table 11 (ACH-2), -PMA, 0.1 μg/ml): 942 pg/mL | P24 ([3]; Table 11 (ACH-2), -PMA, 1 μg/ml): 904 pg/mL | P24 ([3]; Table 11 (ACH-2), -PMA, 10 μg/ml): 939 pg/mL

CC1(C)Oc2ccc3ccc(=O)oc3c2[C@@H](OC(=O)[C@@]23CC[C@@](C)(C(=O)O2)C3(C)C)[C@H]1OC(=O)[C@@]12CC[C@@](C)(C(=O)O1)C2(C)C [Compound 16, 3',4'-Di-O-(-)-Camphanoyl-(+)-cis-Khellactone]
suppression ([1]; 0.000256 μg/ml, separate assays, H9): 35% | inhibition at 0.000256 µg/mL ([1]; Human immunodeficiency virus 1, H9, 0.000256 μg/ml, separate assays, H9, read-out: suppression): 44% | EC50 ([1]; Human immunodeficiency virus 1, H9, H9, text to Table 7, read-out: EC50): ≥ 0.000256 µg/mL and 0.41 nM | EC50 ([1]; Human immunodeficiency virus 1, H9, H9 lymphocytes, Table 3, read-out: ED^50 (the source's name)): ≥ 0.41 nM | EC50 ([1]; Human immunodeficiency virus 1, H9, Table 3, H9 lymphocytes, read-out: EC50): 0.41 nM | EC50 ([1]; Human immunodeficiency virus 1, H9, Table 7, read-out: EC5): 0.000256 µg/mL and 0.41 nM | EC50 ([1]; Human immunodeficiency virus 1, H9, Table 17, acutely infected H9 lymphocytes, read-out: EC50): 0.41 nM | anti-HIV activity in H9 cells (in words) ([1]; acutely infected H9 cells): potent anti-HIV activity | P24 ([2]; U1, +PMA, 0.0000102 μg/ml): 7328 pg/mL | P24 ([2]; U1, +PMA, 0.0000512 μg/ml): 8710 pg/mL | P24 ([2]; U1, +PMA, 0.00025 μg/ml): 7757 pg/mL | P24 ([2]; U1, +PMA, 0.00128 μg/ml): 6335 pg/mL | P24 ([2]; U1, +PMA, 0.0064 μg/ml): 6419 pg/mL | P24 ([2]; U1, +PMA, 0.032 μg/ml): 8090 pg/mL | P24 ([2]; U1, +PMA, 0.16 μg/ml): 7162 pg/mL | P24 ([2]; U1, +PMA, 0.8 μg/ml): 8390 pg/mL | P24 ([2]; U1, +PMA, 4 μg/ml): 8742 pg/mL | P24 ([2]; U1, +PMA, 20 μg/ml): 9530 pg/mL | P24 ([2]; U1, -PMA, 0.0000102 μg/ml): 52 pg/mL | P24 ([2]; U1, -PMA, 0.0000512 μg/ml): 56 pg/mL | P24 ([2]; U1, -PMA, 0.00025 μg/ml): 78 pg/mL | P24 ([2]; U1, -PMA, 0.00128 μg/ml): 99 pg/mL | P24 ([2]; U1, -PMA, 0.0064 μg/ml): 90 pg/mL | P24 ([2]; U1, -PMA, 0.032 μg/ml): 101 pg/mL | P24 ([2]; U1, -PMA, 0.16 μg/ml): 76 pg/mL | P24 ([2]; U1, -PMA, 0.8 μg/ml): 88 pg/mL | P24 ([2]; U1, -PMA, 4 μg/ml): 41 pg/mL | P24 ([2]; U1, -PMA, 20 μg/ml): 95 pg/mL | effect on virus expression of PMA-stimulated U1 cells (in words) ([2]; with PMA): did not suppress virus replication | induction of virus expression from U1 cells (in words) ([2]; without PMA): did not induce the U1 cells to make virus | P24 ([3]; ACH-2, +PMA, 0.0000102 μg/ml): 17,938 pg/ml | P24 ([3]; ACH-2, +PMA, 0.0000512 μg/ml): 16,079 pg/ml | P24 ([3]; ACH-2, +PMA, 0.00025 μg/ml): 22,756 pg/ml | P24 ([3]; ACH-2, +PMA, 0.00128 μg/ml): 22,344 pg/ml | P24 ([3]; ACH-2, +PMA, 0.032 μg/ml): 24,650 pg/ml | P24 ([3]; ACH-2, +PMA, 0.064 μg/ml [0.010 μM] (so in the source)): 24,364 pg/ml | P24 ([3]; ACH-2, +PMA, 0.16 μg/ml): 21,865 pg/ml | P24 ([3]; ACH-2, +PMA, 0.8 μg/ml): 20,183 pg/ml | P24 ([3]; ACH-2, +PMA, 4 μg/ml): 23,547 pg/ml | P24 ([3]; ACH-2, +PMA, 20 μg/ml): 24,858 pg/ml | P24 ([3]; ACH-2, -PMA, 0.0000102 μg/ml): 666 pg/mL | P24 ([3]; ACH-2, -PMA, 0.0000512 μg/ml): 659 pg/mL | P24 ([3]; ACH-2, -PMA, 0.00025 μg/ml): 777 pg/mL | P24 ([3]; ACH-2, -PMA, 0.00128 μg/ml): 811 pg/mL | P24 ([3]; ACH-2, -PMA, 0.032 μg/ml): 1319 pg/mL | P24 ([3]; ACH-2, -PMA, 0.064 μg/ml [0.010 μM] (so in the source)): 955 pg/mL | P24 ([3]; ACH-2, -PMA, 0.16 μg/ml): 1174 pg/mL | P24 ([3]; ACH-2, -PMA, 0.8 μg/ml): 976 pg/mL | P24 ([3]; ACH-2, -PMA, 4 μg/ml): 1194 pg/mL | P24 ([3]; ACH-2, -PMA, 20 μg/ml): 1509 pg/mL | effect on virus expression of PMA-stimulated ACH-2 cells (in words) ([3]; with PMA): did not suppress virus replication | induction of virus expression from ACH-2 cells (in words) ([3]; without PMA): did not induce the ACH-2 cells to make virus
